Experimental findings from patent US12240862B2, “Inhibitors of peptidylarginine deiminases” (Gilead Sciences, Inc., priority 2020, dated 2025) are described below.

By IC50 is commonly meant the concentration that inhibits the measured activity by half.

The target in the experiment is T1, human PAD4 (Homo sapiens, UniProt Q9UM07).
T1 construct: human PAD4 (NM_012387), A2P663, was PCR amplified; His-SUMO (N, cleaved yes); made in house; host or cells: E. coli BL21(DE3)
T1 sequence (Q9UM07 2-663): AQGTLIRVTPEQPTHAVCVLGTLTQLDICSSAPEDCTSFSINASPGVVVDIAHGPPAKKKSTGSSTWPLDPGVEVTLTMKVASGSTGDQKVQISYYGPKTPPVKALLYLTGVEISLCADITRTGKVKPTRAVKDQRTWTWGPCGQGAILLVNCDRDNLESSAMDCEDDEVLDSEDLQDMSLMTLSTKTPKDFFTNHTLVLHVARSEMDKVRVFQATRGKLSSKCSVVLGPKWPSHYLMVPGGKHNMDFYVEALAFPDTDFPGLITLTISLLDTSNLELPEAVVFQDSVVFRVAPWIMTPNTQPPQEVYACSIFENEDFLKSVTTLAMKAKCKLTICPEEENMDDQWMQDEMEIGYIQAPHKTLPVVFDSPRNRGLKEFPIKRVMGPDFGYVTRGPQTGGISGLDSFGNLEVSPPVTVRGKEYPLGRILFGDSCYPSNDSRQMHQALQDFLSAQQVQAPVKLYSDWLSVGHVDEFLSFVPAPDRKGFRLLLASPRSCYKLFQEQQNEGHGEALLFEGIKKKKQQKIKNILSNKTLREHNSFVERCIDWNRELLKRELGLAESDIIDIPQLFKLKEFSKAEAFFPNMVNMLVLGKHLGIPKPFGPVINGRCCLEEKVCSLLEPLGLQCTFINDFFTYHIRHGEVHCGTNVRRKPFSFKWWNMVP
Put plainly: In vitro PAD4 BAEE biochemical assay. To be noted: human PAD4, BAEE substrate; 5 nM PAD4, 2 mM calcium chloride, 3 mM BAEE; geometric mean of multiple experiments. In short, it runs like this: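 Ammonia release from BAEE deimination monitored by o-phthalaldehyde amine coupling (1 h, 25 °C) after EDTA stop. Final conditions: 5 nM tag-free recombinant human PAD4 (E. coli), 2 mM CaCl2, 3 mM BAEE, pH 7.6 MOPS with DTT; 30 min compound preincubation, then 2 h reaction at 25 °C.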
As to `COc1cc(C(=O)N2CCC[C@@H](N)C2)cc2nc(-c3cc4ccc(OC5CCN(C)C5=O)nc4n3CC3CC3)c(C)n12` (some centres unmarked) [Example 623, 3-[2-[7-[(3~{R})-3-aminopiperidine-1-carbonyl]-5-methoxy-3-methylimidazo[1,2-a]pyridin-2-yl]-1-(cyclopropylmethyl)pyrrolo [2,3-b]pyridin-6-yl]oxy-1-methylpyrrolidin-2-one], the IC50 turned out to be 131 nM. The figure for `COc1cc(C(=O)N2[C@H]3CC[C@@H]2[C@H](N)C3)cc2nc(-c3cc4ccc([C@@H](C)NC(=O)C56CC(C#N)(C5)C6)nc4n3CC3CC3)c(C)n12` [Example 158, ~{N}-[(1~{R})-1-[2-[7-[(1~{R},2~{R},4~{S})-2-amino-7-azabicyclo[2.2.1]heptane-7-carbonyl]-5-methoxy-3-methylimidazo [1,2-a]pyridin-2-yl]-1-(cyclopropylmethyl)pyrrolo [2,3-b]pyridin-6-yl]ethyl]-3-cyanobicyclo[1.1.1]pentane-1-carboxamide] is 73.8 nM; for `COc1cc(C(=O)N2[C@H]3CC[C@@H]2[C@H](N)C3)cc2nc(-c3cc4ccc([C@@H](C)NC(=O)c5cncs5)nc4n3CC3CC3)c(C)n12` [Example 72, ~{N}-[(1~{R})-1-[2-[7-[(1~{R},2~{R},4~{S})-2-amino-7-azabicyclo[2.2.1]heptane-7-carbonyl]-5-methoxy-3-methylimidazo [1,2-a]pyridin-2-yl]-1-(cyclopropylmethyl)pyrrolo [2,3-b]pyridin-6-yl]ethyl]-1,3-thiazole-5-carboxamide] it is 32.7 nM. As for `COc1cc(C(=O)N2[C@@H]3CC[C@@H](N)[C@H]2CC3)cc2nc(-c3cc4ccc(N(C(F)F)S(C)(=O)=O)nc4n3CC3CC3)c(CC3CC3)n12` [Example 403, ~{N}-[2-[7-[(1~{R},2~{R}, 5~{R})-2-amino-8-azabicyclo[3.2.1]octane-8-carbonyl]-3-(cyclopropylmethyl)-5-methoxyimidazo [1,2-a]pyridin-2-yl]-1-(cyclopropylmethyl)pyrrolo [2,3-b]pyridin-6-yl]-~{N}-(difluoromethyl) methanesulfonamide], the figure is 754 nM; as for `COc1cc(C(=O)N2[C@H]3CC[C@@H]2[C@H](N)C3)cc2nc(-c3cc4ccc(-c5cccnc5-c5cncs5)nc4n3CC3CC3)c(C)n12` [Example 567, [(1~{R},2~{R},4~{S})-2-amino-7-azabicyclo [2.2.1]heptan-7-yl]-[2-[1-(cyclopropylmethyl)-6-[2-(1,3-thiazol-5-yl)pyridin-3-yl]pyrrolo[2,3-b]pyridin-2-yl]-5-methoxy-3-methylimidazo[1,2-a]pyridin-7-yl]methanone], 114 nM. The figure for `COc1cc(C(=O)N2CCC[C@@H](N)C2)cc2nc(-c3cc4ccc([C@@H](C)NS(C)(=O)=O)nc4n3CC3CC3)c(C)n12` [Example 268, ~{N}-[(1~{R})-1-[2-[7-[(3~{R})-3-aminopiperidine-1-carbonyl]-5-methoxy-3-methylimidazo [1,2-a]pyridin-2-yl]-1-(cyclopropylmethyl)pyrrolo [2,3-b]pyridin-6-yl]ethyl]methanesulfonamide] is 257 nM; for `COc1cc(C(=O)N2CCC[C@@H](N)C2)cc2nc(-c3cc4ccc([C@@H](C)NC(=O)OC(C)(C)C)nc4n3CC3CC3)c(C)n12` [Example 257, ~{tert}-butyl~{N}-[(1~{R})-1-[2-[7-[(3~{R})-3-aminopiperidine-1-carbonyl]-5-methoxy-3-methylimidazo[1,2-a]pyridin-2-yl]-1-(cyclopropylmethyl)pyrrolo [2,3-b]pyridin-6-yl]ethyl] carbamate] it is 208 nM; for `COc1cc(C(=O)N2[C@H]3CC[C@@H]2[C@H](N)C3)cc2nc(-c3cc4ccc([C@@H](C)NC(=O)N(C)c5ccccc5)nc4n3CC3CC3)c(C)n12` [Example 242, 3-[(1~{R})-1-[2-[7-[(1~{R},2~{R},4~{S})-2-amino-7-azabicyclo[2.2.1]heptane-7-carbonyl]-5-methoxy-3-methylimidazo [1,2-a]pyridin-2-yl]-1-(cyclopropylmethyl)pyrrolo [2,3-b]pyridin-6-yl]ethyl]-1-methyl-1-phenylurea] it is 238 nM. Take `COc1cc(C(=O)N2[C@H]3CC[C@@H]2[C@H](N)C3)cc2nc(-c3cc4ccc(N5[C@@H](C(F)(F)F)CCCS5(=O)=O)nc4n3CC3CC3)c(C)n12` [Example 447, [(1~{R},2~{R},4~{S})-2-amino-7-azabicyclo [2.2.1]heptan-7-yl]-[2-[1-(cyclopropylmethyl)-6-[(3~{R})-1,1-dioxo-3-(trifluoromethyl)thiazinan-2-yl]pyrrolo[2,3-b]pyridin-2-yl]-5-methoxy-3-methylimidazo[1,2-a]pyridin-7-yl]methanone]: the IC50 was found to be 187 nM.

Turning to `COc1cc(C(=O)N2CCC[C@@H](N)C2)cc2nc(-c3cc4ccc([C@@H](C)CC(=O)N(C)C)nc4n3CC3CC3)c(C)n12` [Example 535, (3~{S})-3-[2-[7-[(3~{R})-3-aminopiperidine-1-carbonyl]-5-methoxy-3-methylimidazo[1,2-a]pyridin-2-yl]-1-(cyclopropylmethyl)pyrrolo [2,3-b]pyridin-6-yl]-~{N},~{N}-dimethylbutanamide], the IC50 was found to be 305 nM.

For the compound `CCc1ccc2cc(-c3nc4cc(C(=O)N5[C@H]6CC[C@@H]5[C@H](N)C6)cc(OC)n4c3C3CC3)n(CC3CC3)c2n1` [Example 578, [(1~{R},2~{R},4~{S})-2-amino-7-azabicyclo [2.2.1]heptan-7-yl]-[3-cyclopropyl-2-[1-(cyclopropylmethyl)-6-ethylpyrrolo[2,3-b]pyridin-2-yl]-5-methoxyimidazo [1,2-a]pyridin-7-yl]methanone], the IC50 was 346 nM. In the case of `COc1cc(C(=O)N2[C@H]3CC[C@@H]2[C@H](N)C3)cc2nc(-c3cc4ccc([C@@H](C)NC(=O)N5CC[C@H](F)C5)nc4n3CC3CC3)c(C)n12` [Example 248, (3~{S})-~{N}-[(1~{R})-1-[2-[7-[(1~{R},2~{R},4~{S})-2-amino-7-azabicyclo[2.2.1]heptane-7-carbonyl]-5-methoxy-3-methylimidazo [1,2-a]pyridin-2-yl]-1-(cyclopropylmethyl)pyrrolo [2,3-b]pyridin-6-yl]ethyl]-3-fluoropyrrolidine-1-carboxamide], the IC50 was determined as 55.9 nM. As for `COc1cc(C(=O)N[C@@H]2CC[C@H](C)NC2)cc2nc(-c3cc4ccc(N(C(F)F)S(C)(=O)=O)nc4n3CC3CC3)c(C)n12` [Example 315, 2-[1-(cyclopropylmethyl)-6-[difluoromethyl (methylsulfonyl)amino]pyrrolo[2,3-b]pyridin-2-yl]-5-methoxy-3-methyl-~{N}-[(3~{R},6~{S})-6-methylpiperidin-3-yl]imidazo[1,2-a] pyridine-7-carboxamide], the figure is 350 nM; as for `COc1cc(C(=O)N2CCC[C@@H](N)C2)cc2nc(-c3cc4ccc(-c5cccc6c5CNC6=O)nc4n3CC3CC3)c(C)n12` [Example 602, 4-[2-[7-[(3~{R})-3-aminopiperidine-1-carbonyl]-5-methoxy-3-methylimidazo[1,2-a]pyridin-2-yl]-1-(cyclopropylmethyl)pyrrolo[2,3-b]pyridin-6-yl]-2,3-dihydroisoindol-1-one], 2150 nM.
